16 compounds from US12172989B2, “Histone acetyltransferase (HAT) inhibitor and use thereof” (SHANGHAI INSTITUTE OF MATERIA MEDICA, CHINESE ACADEMY OF …, priority 2018, dated 2024) can be followed below.

Assay [1] deals with human mantle cell lymphoma (MCL) cell line MAVER-1. As to the kind of experiment: Cell growth inhibition experiment (CellTiter-Glo), MAVER-1. The format is cell-based. The conditions noted are these: MAVER-1 cells treated with the compound for 5 days. Here is the method: The human mantle cell lymphoma (MCL) cell line MAVER-1 (from ATCC, CRL-3008) was cultured with RPMI 1640 medium (Gibco, available from Life Technologies Corporation, 22400-089) containing […] (Gibco, available from Life Technologies, 10099-141) and 1% antibiotics (penicillin and streptomycin, available from Life Technologies Corporation, 10378016) in a CO2 cell incubator (37° C., 5% CO2). In the cell growth inhibition experiment, MAVER-1 cells in exponential growth phase were seeded on a 96-well plate (purchased from Corning Company, 3599) in a volume of 100 μL/well and a cell density of 1*10E5 cells/well. After seeded, the plate was placed in a CO2 incubator to culture for 1 h. 100 μL of a compound at different concentrations diluted in 3-fold gradient or DMSO were added in a 96-well plate containing the cells. The final concentration of the compound ranges from 0.3 to 10000 nM, and the final concentration of DMSO is 0.05% as control group. The cells were treated with the compound for 5 days. Cell viability was measured using CellTiter-Glo reagent (purchased from Promega, G7572): the cells treated with the compound for 5 days was added with CellTiter-Glo reagent at 20 μL/well, incubated at room temperature for 10 min, transferred to a white 96-well plate (OptiPlate-96, purchased from PerkinElmer, 605299) by 80 μL. Subsequently, the luminescence signal was detected by using a multifunctional microplate reader EnVision (purchased from PerkinElmer) at a wavelength of 400-700 nm. The data was analyzed by using GraphPad Prism 5.0 software to obtain IC50.
Background: In ATP-based viability assays light output follows the ATP content of the culture.

Assay [2] concerns Human castration resistant prostate cancer cell line 22Rv1. As to the kind of experiment: Cell growth inhibition experiment (CellTiter-Glo), 22Rv1. The format is cell-based. The settings on record: 22Rv1 cells treated with the compound for 5 days. On the procedure:
(§1) Human castration resistant prostate cancer cell line 22Rv1 and LNCaP clone FGC (22Rv1 cell line was from ATCC, CRL-2505, LNCaP clone FGC cell line was purchased from Cell Bank of the Chinese Academy of Sciences) were cultured with RPMI 1640 medium (Gibco, available from Life Technologies Corporation, 22400-089) containing 10% fetal bovine serum (Gibco, available from Life Technologies, 10099-141) and 1% antibiotics (penicillin and streptomycin, available from Life Technologies Corporation, 10378016) in a CO2 cell incubator (37° C., 5% CO2). In the cell growth inhibition experiment, 22Rv1 and LNCaP clone FGC cells in exponential growth phase were seeded on a 96-well plate (purchased from Corning Company, 3599) with a volume of 150 μL/well and a cell density of 1,500 cells/well. After seeded, the plate was placed in a CO2 incubator to incubate overnight to allow the cells to adhere. On the next day, 50 μL of a compound at different concentrations diluted in 3-fold gradient or DMSO were added in a 96-well plate containing the cells. The final concentration of the compound ranges from 0.3 to 10000 nM, and the final concentration of DMSO is 0.05% as control group. The cells were treated by the compound for 5 days. Cell viability was measured using CellTiter-Glo reagent (purchased from Promega, G7572): the cell treated with the compound for 5 days was added with CellTiter-Glo reagent at 40 μL/well, incubated at room temperature for 10 min, transferred to a white 96-well plate (OptiPlate-96, purchased from PerkinElmer, 605299) by 70 μL. Subsequently, the luminescence signal was detected using a multifunctional microplate reader EnVision (purchased from PerkinElmer) at a wavelength of 400-700 nm. The data was analyzed by using GraphPad Prism 5.0 software to obtain IC50.

For assay [3], the system named is Human castration resistant prostate cancer cell line LNCaP clone FGC. As to the kind of experiment: Cell growth inhibition experiment (CellTiter-Glo), LNCaP clone FGC. The class given is cell-based. The settings on record: LNCaP clone FGC cells treated with the compound for 5 days. Here is the method: as §1
For assay [4], the target named is T1, histone acetyltransferase p300 (Homo sapiens, UniProt Q09472).
T1 construct: purchased BPS Corporation 50071
T1 sequence (Q09472 1284-1673 limits assumed): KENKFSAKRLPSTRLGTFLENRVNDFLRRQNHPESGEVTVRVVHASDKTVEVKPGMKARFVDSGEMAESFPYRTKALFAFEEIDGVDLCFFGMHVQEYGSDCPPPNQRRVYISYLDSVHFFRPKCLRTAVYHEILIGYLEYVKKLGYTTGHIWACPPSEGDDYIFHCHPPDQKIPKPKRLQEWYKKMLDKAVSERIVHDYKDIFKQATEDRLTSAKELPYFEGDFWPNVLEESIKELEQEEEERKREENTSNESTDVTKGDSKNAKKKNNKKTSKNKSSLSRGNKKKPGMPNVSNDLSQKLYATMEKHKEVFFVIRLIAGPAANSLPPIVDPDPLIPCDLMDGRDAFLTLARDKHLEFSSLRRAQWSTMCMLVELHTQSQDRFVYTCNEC
As to the kind of experiment: Histone acetyltransferase (p300) activity assay (radioisotope, [3H]-Ac-CoA). The class given is biochemical. The conditions noted are these: p300 0.05 nM; histone peptide 600 nM, [3H]-Ac-CoA 250 nM; 60 min at room temperature; read-out: Inhibition rate IC50. Here is the method: The reaction was finally terminated with Ac-CoA (Sigma, Cat. No. A2056) without isotope labeling. If the activity of the acetyltransferase p300 was inhibited, the isotope signal cannot be detected on the substrate polypeptide. Therefore, the inhibitory activity of the compound against the acetyltransferase p300 was evaluated.
In the enzyme reaction system, 200 nL of a diluted compound (100% DMSO) was first transferred to a test plate using Echo, where the final concentration of the compound in the enzyme reaction system ranges from 0.25 to 5000 nM. Then 10 μL/well of p300 protein (final concentration of 0.05 nM) was transferred therein, and incubated with the compound for 15 min at room temperature. Then 10 μL/well of a substrate mixture (final concentrations of histone peptide and [^3H]—Ac-CoA were 600 nM and 250 nM, respectively) was added to start the enzyme-catalyzed reaction, and incubated at room temperature for 60 min. Then 10 µL/well of a 250 μM cold Ac-CoA solution was added to stop the reaction. Finally 25 μL/well of the reaction solution was transferred to a 384-well Flashplate (Perkin Elmer, Cat. No. SMP410A001PK), and incubated at room temperature for 1 h. The resultant was washed with double distilled water+0.1% Tween-20 three times. The signal value was read by using Microbeta. The data was analyzed by using GraphPad Prism 5.0 software to obtain IC50.

The structures appear in SMILES notation.

The IC50 is the concentration that inhibits the measured activity by half.

As to `CNC(=O)Nc1ccc2c(c1)CC[C@@]21OC(=O)N(CC(=O)N(Cc2ccc(F)cc2)[C@@H](C)C(F)(F)F)C1=O` [Example A-485, reference compound], the IC50 in assay [1] worked out at 206 nM; in assay [2], 384 nM; in assay [3], 215 nM.
On to `CNC(=O)Nc1ccc2c(c1)CCC21OC(=O)N(CC(=O)N2Cc3ccccc3CCC2C)C1=O` (centres unmarked) [SYY-B003], for which the IC50 in assay [1] (Homo sapiens, Maver1, 120 h) came to 112 nM; in assay [2] (Homo sapiens, 120 h) it was 258 nM; in assay [3] (Homo sapiens, 120 h) it was 164 nM.
Consider `CNC(=O)Nc1ccc2c(c1)CC[C@]21OC(=O)N(CC(=O)N2Cc3ccccc3CC[C@H]2C)C1=O` [SYY-B015-1], for which the IC50 in assay [4] stood at 12 nM; in assay [1] (Homo sapiens, Maver1, 120 h), 104 nM; in assay [2] (Homo sapiens, 120 h), 345 nM; in assay [3] (Homo sapiens, 120 h), 168 nM.
As for `CNC(=O)Nc1ccc2c(c1)CC[C@@]21OC(=O)N(CC(=O)N2Cc3ccccc3CC[C@H]2C)C1=O` [SYY-B015-2], the IC50 in assay [4] came out at 3.7 nM; in assay [1] (Homo sapiens, Maver1, 120 h), 18 nM; in assay [2] (Homo sapiens, 120 h) it was 33 nM; in assay [3] (Homo sapiens, 120 h) it was 15 nM.
Turning to `CNC(=O)Nc1ccc2c(c1)CC[C@]21OC(=O)N(CC(=O)N2Cc3ccccc3CC[C@H]2C2CC2)C1=O` [SYY-B018-1], the IC50 turned out to be 3.3 nM in assay [4]; 49 nM in assay [1] (Homo sapiens, Maver1, 120 h); 88 nM in assay [2] (Homo sapiens, 120 h); 73 nM in assay [3] (Homo sapiens, 120 h).
In the same order, the values of `CNC(=O)Nc1ccc2c(c1)CC[C@@]21OC(=O)N(CC(=O)N2Cc3ccccc3CC[C@H]2C2CC2)C1=O` [SYY-B018-2] are 0.67 nM, 6 nM, 5 nM and 6 nM.
Turning to `CNC(=O)Nc1ccc2c(c1)CC[C@]21OC(=O)N(CC(=O)N2Cc3ccccc3CC[C@H]2C(C)C)C1=O` [SYY-B019-1], the IC50 is 2.7 nM in assay [4]; 40 nM in assay [1] (Homo sapiens, Maver1, 120 h); 205 nM in assay [2] (Homo sapiens, 120 h); 186 nM in assay [3] (Homo sapiens, 120 h).
Turning to `CNC(=O)Nc1ccc2c(c1)CC[C@]21OC(=O)N(CC(=O)N2Cc3ccccc3CC[C@H]2C(F)(F)F)C1=O` [SYY-B027-1], the half-maximal inhibitory concentration (IC50) turned out to be 9.1 nM in assay [4]; 40 nM in assay [2] (Homo sapiens, 120 h); 48 nM in assay [3] (Homo sapiens, 120 h).
As for `CNC(=O)Nc1ccc2c(c1)CC[C@@]21OC(=O)N(CC(=O)N2Cc3cc(F)ccc3OC[C@H]2C2CC2)C1=O` [SYY-B029-2], the IC50 in assay [4] came out at 1.4 nM; in assay [1] (Homo sapiens, Maver1, 120 h), 15 nM; in assay [3] (Homo sapiens, 120 h), 13 nM.
For the compound `CNC(=O)Nc1ccc2c(c1)CCC21NC(=O)N(CC(=O)N2Cc3ccc(F)cc3CC[C@H]2C2CC2)C1=O` (some centres unmarked) [SYY-B033], the IC50 stood at 4.8 nM in assay [4]; 127 nM in assay [2] (Homo sapiens, 120 h); 78 nM in assay [3] (Homo sapiens, 120 h).
In the case of `CC(C)(N)C(=O)Nc1ccc2c(c1)CC[C@]21OC(=O)N(CC(=O)N2Cc3ccc(F)cc3CC[C@H]2C2CC2)C1=O` [SYY-B037-1], the half-inhibitory concentration (IC50) in assay [4] is 1.5 nM; in assay [2] (Homo sapiens, 120 h), 64 nM; in assay [3] (Homo sapiens, 120 h), 13 nM.
For `CC(C)(N)C(=O)Nc1ccc2c(c1)CC[C@@]21OC(=O)N(CC(=O)N2Cc3ccc(F)cc3CC[C@H]2C2CC2)C1=O` [SYY-B038-1], the IC50 stood at 1 nM in assay [4]; 13 nM in assay [2] (Homo sapiens, 120 h); 6 nM in assay [3] (Homo sapiens, 120 h).
As to `NC1(C(=O)Nc2ccc3c(c2)CC[C@]32OC(=O)N(CC(=O)N3Cc4ccc(F)cc4CC[C@H]3C3CC3)C2=O)CCC1` [SYY-B039-1], the IC50 is 1.9 nM in assay [4]; 74 nM in assay [2] (Homo sapiens, 120 h); 52 nM in assay [3] (Homo sapiens, 120 h).
In the same order, the values of `NC1(C(=O)Nc2ccc3c(c2)CC[C@@]32OC(=O)N(CC(=O)N3Cc4ccc(F)cc4CC[C@H]3C3CC3)C2=O)CCC1` [SYY-B039-2] are 1.2 nM, 36 nM and 15 nM.
Take `Cn1cc(-c2ccc3c(c2)CC[C@]32OC(=O)N(CC(=O)N3Cc4ccc(F)cc4CC[C@H]3C3CC3)C2=O)cn1` [SYY-B041-1]: the IC50 in assay [4] is 4.3 nM; in assay [2] (Homo sapiens, 120 h), less than 100 nM; in assay [3] (Homo sapiens, 120 h) it was less than 100 nM.
Take `Cn1cc(-c2ccc3c(c2)CC[C@@]32OC(=O)N(CC(=O)N3Cc4ccc(F)cc4CC[C@H]3C3CC3)C2=O)cn1` [SYY-B041-2]: the IC50 in assay [4] was 3.4 nM; in assay [2] (Homo sapiens, 120 h) it was less than 100 nM; in assay [3] (Homo sapiens, 120 h), less than 100 nM.
